The values below come from patent publication US20200291100A1, “TREATMENT OF AGE-RELATED AND MITOCHONDRIAL DISEASES BY INHIBITION OF HIF-1 ALPHA FUNCTION” (President and Fellows of Harvard College, priority 2012, published 2020).

Assay [1] has as its system PGC-1α/β knockout myotubes. Nature of the assay: HIF stabilizing compounds in PGC-1α/β knockout myotubes with or without SIRT1 overexpression. The format is cell-based, mouse. The protocol: Next whether the ability of SIRT1 to regulate mitochondrial function independently of PGC-1α/β is mediated by HIF-1α was tested. […] Furthermore, cells expressing a mutant allele of HIF-1α that is constitutively stabilized due to the replacement of the two hydroxylated prolines with alanines (DPA) (FIG. 7A), caused genome asynchrony similar to hypoxia and treatment with DMOG (FIG. 7B).
Primary myoblasts cells were isolated from WT, SIRT1 KO (Price et al., 2012) and PGC-1α/β KO (Zechner et al., 2010) mice as previously described (Price et al., 2012). WT and PGC-1α/β KO primary myoblasts were plated and allowed to differentiate into myotubes by replacing the media with low glucose DMEM supplemented with 2% horse serum (Sigma-Aldrich) for 4 days. After the differentiation the cells were infected with empty vector or flag-SIRT1 adenovirus as described before (Gerhart-Hines et al., 2007). Media was replaced with fresh DMEM supplemented with 2% horse serum (Sigma-Aldrich) for an additional 48 hr and, after that the cells were harvested for the different assays as described. To investigate the role of HIF-1α in genome asynchrony, PGC-1α/β KO primary myotubes were treated for 12 hours with 1 mM DMOG (Sigma) or 10 μM DFO (Sigma), 24 h after infection with empty vector of flag-SIRT1 adenovirus or after 12 h treatment with […] NMN (Sigma).
RNA from skeletal muscle tissue and C2C12 cells were extracted with RNeasy mini kit (Qiagen) according to the instructions and quantified using the NanoDrop 1000 spectrophotometer (Thermo Scientific). cDNA was synthesized with the iSCRIP cDNA synthesis kit (BioRad) using 600 ng of RNA. Quantitative RT-PCR reactions were performed using 1 μM of primers and LightCycler® 480 SYBR Green Master (Roche) on an LightCycler® 480 detection system (Roche). Calculations were performed by a comparative method (2-ΔCT) using 18S as an internal control. For mtDNA analysis, total DNA was extracted with DNeasy blood and tissue kit (Qiagen). mtDNA was amplified using primers specific for the mitochondrial cytochrome c oxidase subunit 2 (COX2) gene and normalized to genomic DNA by amplification of the ribosomal protein s18 (rps18) nuclear gene. […]
Protein extracts from tissue or C2C12 cells were obtained by lysis in ice-cold lysis buffer (150 mM NaCl, 10 mM Tris HCl (pH 7.4), 1 mM EDTA, 1 mM EGTA, 1% Triton X-100, 0.5% NP-40) supplemented with a cocktail of protease and phosphatase inhibitors (Roche). Protein content was determined by the Bradford protein assay (Biorad), and 50 μg proteins were run on SDS-PAGE under reducing conditions. […] The immunostaining was detected using horseradish peroxidase-conjugated anti-rabbit or anti-mouse immunoglobulin for 1 h at room temperature.

Assay [2] deals with primary PGC-1α/β KO myotubes. Nature of the assay: NMN with or without HIF stabilizing compounds in PGC-1α/β KO myotubes, qPCR of mitochondrially-encoded ETC genes. The format is cell-based, mouse. Here is the method: As a functional test of whether NMN reverses genome asynchrony by depleting cells of HIF-1α, primary PGC-1α/β KO myotubes were incubated with NMN in the presence and absence of the HIF stabilizing compounds DMOG and DFO. […] Primary myoblasts cells were isolated from WT, SIRT1 KO (Price et al., 2012) and PGC-1α/β KO (Zechner et al., 2010) mice as previously described (Price et al., 2012). WT and PGC-1α/β KO primary myoblasts were plated and allowed to differentiate into myotubes by replacing the media with low glucose DMEM supplemented with 2% horse serum (Sigma-Aldrich) for 4 days. After the differentiation the cells were infected with empty vector or flag-SIRT1 adenovirus as described before ([…] al., 2007). Media was replaced with fresh DMEM supplemented with 2% horse serum (Sigma-Aldrich) for an additional 48 hr and, after that the cells were harvested for the different assays as described. […] Quantitative RT-PCR reactions were performed using 1 μM of primers and LightCycler® 480 SYBR Green Master (Roche) on an LightCycler® 480 detection system (Roche). Calculations were performed by a comparative method (2-ΔCT) using 18S as an internal control. For mtDNA analysis, total DNA was extracted with DNeasy blood and tissue kit (Qiagen). mtDNA was amplified using primers specific for the mitochondrial cytochrome c oxidase subunit 2 (COX2) gene and normalized to genomic DNA by amplification of the ribosomal protein s18 (rps18) nuclear gene. Primers were designed using the IDT software (IDT) and the primer sequences can be found in Table 1.

Assay [3] relates to 3- and 24-month-old C57BL/6J mice. Nature of the assay: NMN treatment of 3- and 24-month-old mice, skeletal muscle readouts. The format is in vivo, mouse. Particulars: NMN 500 mg/kg IP, one week. Here is the method:
C57BL/6J mice of 3, 6, 22, 24, or 30 months of age were obtained from the National Institutes of Aging mouse aging colony. Mice were acclimated for at least one-week prior to sacrifice. 3, and 24-month-old mice were given interperitoneal (IP) injections of 500 mg NMN/kg body weight per day or the equivalent volume of PBS for 7 consecutive days at 5:00 pm and 7:00 am on day 8 and sacrificed 4 hr after last injection. All animal studies followed the guidelines of and were approved by the Harvard Institutional Animal Care and Use Committee
Skeletal muscle mitochondria were isolated as described previously (Frezza et al., Nat. Protoc. 2:287-295 (2007)). Mitochondrial membrane potential, cytochrome c activity and succinate dehydrogenase were determined as described (Brautigan et al., Methods Enzymol. 53:128-164 (1978); Rolo et al., Biochim. Biophys. Acta. 1637:127-132 ([…]); Singer, T. P., Methods Biochem. Anal. 22:123-175 (1974)). ATP content was measured with a commercial kit according to the manufacturer's instructions (Roche).
NAD^+ from C2C12 cells and skeletal muscle was quantified with a commercially available kit (BioVision) according to the manufacturer's instructions and as described before (Gomes et al., Biochim. Biophys. Acta. 1822:185-195 (2012)).
To test whether a decline in NAD^+ availability, invokes a pseudohypoxic response in muscle that inhibits mitochondrial function, we treated 3- and 24-month-old C57BL/6J mice for one week by intraperitoneal injection of nicotinamide mononucleotide (NMN) (500 mg/kg body weight), a compound that increases NAD^+ levels in a variety of tissues. After the treatment, levels of cellular NAD^+ in both the young and old mice were approximately 2-fold higher, such that the treated 24-month-old mice resembled the untreated 3-month-olds (FIG. 10A).

[4] abbreviates: skeletal muscle, treated old (24-month) mice.

With `COC(=O)CNC(=O)C(=O)OC` [DMOG, dimethyloxaloylglycine], the “expression of mitochondrial-encoded genes” value in assay [1] (DMOG compared to vehicle control, no SIRT1 overexpression) is listed as “induced a decline”. Also, in assay [1] (DMOG versus DMSO (FIG. 21C)), the “HIF-1α protein (immunoblot)” value is “stabilizes HIF-1α protein”. For the same compound, in assay [1] (SIRT1 adenovirus, 1 mM DMOG or 10 μM DFO, 12 hours), the “effect on induction of mitochondrial ETC genes by SIRT1 overexpression” value is “completely blocked”. For the same compound, the “effect on NMN-induced expression of mitochondrially-encoded ETC genes” value in assay [2] (HIF stabilizing compound added to NMN-treated cells, 1 mM DMOG or 10 μM DFO, 12 hours) was “completely abolished”.

As for `NC(=O)c1ccc[n+]([C@@H]2O[C@H](COP(=O)([O-])O)[C@@H](O)[C@H]2O)c1` [NMN, nicotinamide mononucleotide], in assay [2] (NMN alone, versus PBS), the “expression of mitochondrially-encoded ETC genes (ND1, CYTB, COX1, ATP6)” value is “induced expression”. Moreover, the “expression of HIF-1α target genes (PGK-1, Glut1, PKD1, VEGFa)” value in assay [3] (gastrocnemius, qPCR, 24-month-old mice) was “suppressed the expression”. The “HIF-1α in muscle (immunoblot)” value in assay [3] (gastrocnemius, 24-month-old mice) is “reversed the age-induced increase”. For the same compound, the “levels of cellular NAD+” value in assay [3] (gastrocnemius, young and old mice, versus untreated) is given as “approximately 2 fold”. Further, the mitochondrial membrane potential result in assay [3] (isolated skeletal muscle mitochondria, treated old (24-month) mice) was “restoration of mitochondrial membrane potential to the levels of the young mice”. Moreover, in assay [3] (setting [4]), the ATP levels result is given as “increases” and the COX activity entry is given as “increases”.
